Laboratory results: patent US7759345B2, “Antitumoral derivatives of ET-743” (priority 2001, dated 2010)

How the values were obtained:
P-388 = test: Inhibition of cell growth by counting cells, P-388; format: cell-based, mouse; details: Mus musculus, P388, 72 h; three days of incubation; read-out: IC50 (molar) P-388
Procedure, shortened: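 Mouse P-388 lymphoid neoplasm suspension cells seeded at 1×10^4 cells/well in EMEM 5% FCS containing graded sample concentrations, in duplicate alongside drug-free growth controls. Cells counted by Coulter counter; % growth vs untreated gives dose-response curves, IC50 = concentration producing 50% growth inhibition.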

MEL-28 = test: Inhibition of cell growth by counting cells, MEL-28; format: cell-based, human; details: Homo sapiens, SK-MEL-28, 72 h; three days of incubation; read-out: IC50 (molar) MEL-28
Procedure, shortened: (§1)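 Monolayer lines were plated at 1×10^4 cells per well with compound in medium containing 5% FCS. After a 3-day incubation at 37° C, crystal violet staining gave an approximate IC50, and cell counting of duplicate wells gave the dose-response IC50.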

DU-145 = test: Inhibition of cell growth by counting cells, DU-145; format: cell-based, human; details: Homo sapiens, DU-145, 72 h; three days of incubation; read-out: IC50 (molar) DU-145
Procedure, shortened: as §1

HT-29 = test: Inhibition of cell growth by counting cells, HT-29; format: cell-based, human; details: Homo sapiens, HT-29, 72 h; three days of incubation; read-out: IC50 (molar) HT-29
Procedure, shortened: as §1

A-549 = test: Inhibition of cell growth by counting cells, A-549; format: cell-based, human; details: Homo sapiens, A549, 72 h; three days of incubation; read-out: IC50 (molar) A-549
Procedure, shortened: as §1

Description for Heart: (§2) Toxicity was asssessed by the methods reported in Toxicology in Vitro, 15 (2001) 571-577, J. Luber Narod et al.: “Evaluation of the use of in vitro methodolodies as tools for screening new compounds for potential in vivo toxicity”.
Description for Kidney: as §2
Description for Liver: as §2
Description for Myelo: as §2
Description for Skeletal: as §2

| Compound | IC50 (P-388) [nM] | Toxicity Data Myelo (Myelo) | IC50 (MEL-28) [nM] | IC50 (DU-145) [nM] | Toxicity Data Heart (Heart) | Toxicity Data Kidney (Kidney) | IC50 (HT-29) [nM] | Toxicity Data Liver (Liver) | IC50 (A-549) [nM] | Toxicity Data Skeletal (Skeletal) |
| --- | --- | --- | --- | --- | --- | --- | --- | --- | --- | --- |
| COc1cc2c(cc1OC(=O)/C=C/c1ccccc1)CCN[C@]21CS[C@@H]2c3c(OC(C)=O)c(C)c4c(c3[C@H](COC1=O)N1C2[C@H]2c3c(cc(C)c(OC)c3O)C[C@@H]([C@@H]1O)N2C)OCO4 (stereo partly drawn) [Compound 61] | 0.112 | 1.69E-08 | 0.112 | 0.112 | 2.76E-08 | 5.12E-09 | 0.112 | 1.32E-08 | 0.112 | 1.47E-08 |
| COc1cc2c(cc1O)CCN[C@]21CS[C@@H]2c3c(OC(=O)/C=C/c4ccccc4)c(C)c4c(c3[C@H](COC1=O)N1C2[C@H]2c3c(cc(C)c(OC)c3O)C[C@@H]([C@@H]1O)N2C)OCO4 (stereo partly drawn) [Compound 161] | 0.118 | 2.27E-08 | 0.118 | 0.118 | 1.13E-08 | 2.60E-09 | 0.118 | 8.58E-09 | 0.118 | 1.65E-08 |
| CCCCCCCC(=O)Oc1cc2c(cc1OC)[C@@]1(CS[C@@H]3c4c(OC(C)=O)c(C)c5c(c4[C@H](COC1=O)N1C3[C@H]3c4c(cc(C)c(OC)c4O)C[C@@H]([C@@H]1O)N3C)OCO5)NCC2 (stereo partly drawn) [Compound 59] | 0.113 | 4.18E-08 | 0.113 | 0.113 | 8.14E-08 | 2.87E-08 | 0.113 | 2.53E-08 | 0.113 | 1.46E-07 |
| C=CCOC(=O)Oc1cc2c(cc1OC)[C@@]1(CS[C@@H]3c4c(OC(C)=O)c(C)c5c(c4[C@H](COC1=O)N1C3[C@H]3c4c(cc(C)c(OC)c4O)C[C@@H]([C@@H]1O)N3C)OCO5)NCC2 (stereo partly drawn) [Compound 64] | 0.118 | 1.93E-08 | 0.592 | – | 5.50E-08 | 1.77E-08 | 0.592 | 2.57E-08 | 0.592 | 1.66E-09 |
| COc1cc2c(cc1OC(=O)OCc1ccccc1)CCN[C@]21CS[C@@H]2c3c(OC(C)=O)c(C)c4c(c3[C@H](COC1=O)N1C2[C@H]2c3c(cc(C)c(OC)c3O)C[C@@H]([C@@H]1O)N2C)OCO4 (stereo partly drawn) [Compound 65] | 0.112 | 1.70E-08 | 0.112 | 0.112 | 9.00E-09 | 3.15E-09 | 0.112 | 5.30E-09 | 0.112 | 3.77E-09 |
| C=CCOc1cc2c(cc1OC)[C@@]1(CS[C@@H]3c4c(OC(C)=O)c(C)c5c(c4[C@H](COC1=O)N1C3[C@H]3c4c(cc(C)c(OC)c4O)C[C@@H]([C@@H]1O)N3C)OCO5)NCC2 (stereo partly drawn) [Compound 70] | 0.125 | 6.61E-08 | 0.125 | 0.125 | 2.20E-07 | 1.07E-07 | 0.125 | 3.16E-08 | 0.125 | 3.67E-08 |
| COc1cc2c(cc1OC(=O)OC(C)(C)C)CCN[C@]21CS[C@@H]2c3c(OC(C)=O)c(C)c4c(c3[C@H](COC1=O)N1C2[C@H]2c3c(cc(C)c(OC)c3OC(=O)OC(C)(C)C)C[C@@H]([C@@H]1O)N2C)OCO4 (stereo partly drawn) [Compound 86] | 0.52 | 8.35E-08 | 0.52 | 0.52 | 8.16E-08 | 1.37E-08 | 0.52 | 1.47E-08 | 0.52 | 3.88E-08 |
| COc1cc2c(cc1OC(=O)C(F)(F)F)CCN[C@]21CS[C@@H]2c3c(OC(C)=O)c(C)c4c(c3[C@H](COC1=O)N1C2[C@H]2c3c(cc(C)c(OC)c3O)C[C@@H]([C@@H]1O)N2C)OCO4 (stereo partly drawn) [Compound 104] | 0.117 | 1.93E-08 | 0.583 | 0.583 | 3.44E-09 | 2.67E-09 | 0.583 | 4.16E-09 | 0.583 | 4.10E-07 |
| CCOc1cc2c(cc1OC)[C@@]1(CS[C@@H]3c4c(OC(C)=O)c(C)c5c(c4[C@H](COC1=O)N1C3[C@H]3c4c(cc(C)c(OC)c4O)C[C@@H]([C@@H]1O)N3C)OCO5)NCC2 (stereo partly drawn) [Compound 68] | – | 1.89E-08 | – | – | 1.13E-08 | 5.10E-09 | 0.633 | 1.76E-08 | 0.633 | 1.27E-08 |
| CCN1CCc2cc(O)c(OC)cc2[C@@]12CS[C@@H]1c3c(OC(C)=O)c(C)c4c(c3[C@H](COC2=O)N2C1[C@H]1c3c(cc(C)c(OC)c3O)C[C@@H]([C@@H]2O)N1C)OCO4 (stereo partly drawn) [Compound 94] | 0.152 | 1.13E-08 | 0.152 | – | 6.66E-08 | 3.49E-09 | 0.152 | 1.24E-08 | 0.152 | 1.44E-09 |
| COc1cc2c(cc1O)CCN[C@]21CS[C@@H]2c3c(OC(C)=O)c(C)c4c(c3[C@H](COC1=O)N1C2[C@H]2c3c(cc(C)c(OC)c3OC)C[C@@H]([C@@H]1O)N2C)OCO4 (stereo partly drawn) [Compound 98] | – | 3.79E-08 | – | – | 4.98E-08 | 1.08E-06 | 0.129 | 4.21E-08 | 0.129 | 1.24E-08 |
